Measurements as given in ChEMBL document CHEMBL1152311, “A multipronged approach to the study of peruvian ethnomedicinal plants: a legacy of the ICBG-Peru Project” (J Nat Prod, 2009).
Calls of active or inactive are those of the source. The rule behind the calls is not given here.

Tests used:
M14 = assay: Cytotoxicity against human M14 cells; type: functional
PC-3 = assay: Cytotoxicity against human PC3 cells; type: functional
NCI-H460 = assay: Cytotoxicity against human H460 cells; type: functional
DU-145 = assay: Cytotoxicity against human DU145 cells; type: functional
MCF7 = assay: Cytotoxicity against human MCF7 cells; type: functional
ME-180 = assay: Cytotoxicity against human ME180 cells; type: functional
[1] = Cytotoxicity against mouse 3T3 cells; type: cell-based; conditions: BALB/3T3 clone A31 cells
Mus musculus = organism: Mus musculus; assay: Wound healing activity in mouse; type: functional
HT-29 = assay: Cytotoxicity against human HT-29 cells; type: functional
K562 = assay: Cytotoxicity against human K562 cells; type: functional
Leishmania amazonensis = assay: Antileishmanial activity against Leishmania amazonensis axenic amastigotes; type: functional
[2] = Cytotoxicity against african green monkey Vero cells; type: cell-based; conditions: chlorocebus sabaeus
[3] = tested on: Mycobacterium tuberculosis; assay: Antituberculosis activity against Mycobacterium tuberculosis H37Rv; type: functional, organism-based
Saccharomyces cerevisiae [4] = assay: Antimicrobial activity against Saccharomyces cerevisiae RS321; type: functional
Saccharomyces cerevisiae [5] = assay: Antimicrobial activity against Saccharomyces cerevisiae RS322; type: functional
Trypanosoma cruzi = assay: Antitrypanosomal activity against Trypanosoma cruzi Tulahuen C4 transfected with beta-galactosidase; type: functional

| SMILES | GI50 (M14) | GI50 (PC-3) | GI50 (NCI-H460) | GI50 (DU-145) | GI50 (MCF7) | GI50 (ME-180) | GI50 [1] | ED50 (Mus musculus) | GI50 (HT-29) | GI50 (K562) | Activity (Leishmania amazonensis) | GI50 [2] | Activity [3] | IC12 (Saccharomyces cerevisiae [4]) | IC12 (Saccharomyces cerevisiae [5]) | Activity (Trypanosoma cruzi) |
| --- | --- | --- | --- | --- | --- | --- | --- | --- | --- | --- | --- | --- | --- | --- | --- | --- |
| CC(C)=CCC[C@](C)(O)[C@H]1CC=C(C)CC1 | 15.1 µM | 28.5 µM | 32.8 µM | 25.8 µM | 30 µM | 18.2 µM | 54.7 µM | 155 mg/kg | 28.9 µM | 40.5 µM | – | – | – | – | – | – |
| C[C@H](C/C=C\C(C)(C)OO)[C@H]1CC[C@@]2(C)[C@@H]3CC[C@H]4C(C)(C)[C@@H](O)CC[C@@]45C[C@@]35CC[C@]12C | 58.6 µM | > 136 µM | 67.4 µM | 78.7 µM | > 136 µM | – | 82.6 µM | – | 65.2 µM | 65.2 µM | 5.2 µM | > 136 µM | inactive | – | – | – |
| COc1ccc(CCC(=O)c2c(O)cc(O)cc2OC)cc1 | 133 µM | 153 µM | 148 µM | 138 µM | 75.7 µM | – | 141 µM | – | 117 µM | 24.5 µM | – | 134 µM | – | – | – | – |
| C/C=C1/C(=O)O[C@]23C=C[C@@H]4C(C(=O)OC)=CO[C@H](O[C@@H]12)[C@@H]43 [PLUMERICIN] | – | – | 276 µM | > 430 µM | > 430 µM | > 430 µM | 431 µM | – | > 430 µM | – | 5 µM | – | inactive | 241 µM | – | – |
| COC(=O)C1=CO[C@H](C)[C@@H]2CN3CC[C@@]4(C(=O)Nc5ccccc54)[C@H]3C[C@@H]12 [UNCARINE E] | – | – | 46.1 µM | 114 µM | – | 67.9 µM | 62.4 µM | – | – | – | – | – | – | 326 µM | 380 µM | – |
| C=CCOc1cc(OC)c(C(=O)/C=C/c2ccc(OC)cc2)c(OCC=C)c1 | 72.2 µM | 47.3 µM | 52.3 µM | 54.9 µM | 51 µM | – | 107 µM | – | 74.3 µM | 43.4 µM | – | – | – | – | – | 1.5 µM |
